Measured values reported in US5008419A, “Novel platinum complex” (SS Pharmaceutical Co., Ltd., priority 1988, dated 1991).

Key:
L1210 leukemia cells = experiment: Antitumor activity against L1210 leukemia in CDF1 mice (increase life span, survived ratio); type: in vivo, CDF1 male mice; details: for ILS (increase life span) / Survived ratio: i.p., once a day for 5 days; for Survived ratio: 30 days observation; for ILS50 (50% increase life span dose): mouse, in vivo, ip, 43200 min
Description: CDF1 male mice (age: 6 weeks) consisting of 6 per each group were used to the test. 1×10^5 L1210 leukemia cells were intraperitoneally inoculated into each mouse. Test compounds dissolved in a solution of 0.5% CMC-Na in physiological saline were intraperitoneally administered to mice once a day for 5 consecutive days from the next day of the inoculation. A 0.5% CMC-Na solution in physiological saline was administered to the control group. […] All of these compounds are known compounds and Comparative Compounds a-c were disclosed in U.S. Pat. No. 4,169,846.
Observation was continued for consecutive 30 days after the administration. Increase life span (ILS) was determined according to the following equation: […]
wherein T is the mean survival days of the treated groups, and C is the mean survival days of the control groups.
(§1) Therapeutic index of compounds of this invention was determined according to the following equation. [formula]

Water solubility = type: physicochemical
50% lethal dose (LD50) = details: in vivo
Description: as §1

Molecule	ILS (increase life span) (L1210 leukemia cells; 4.0 mg/kg)	Survived ratio (L1210 leukemia cells; 4.0 mg/kg)	ILS (increase life span) (L1210 leukemia cells; 8.0 mg/kg)	Survived ratio (L1210 leukemia cells; 8.0 mg/kg)	ILS (increase life span) (L1210 leukemia cells; 16.0 mg/kg)	Survived ratio (L1210 leukemia cells; 16.0 mg/kg)	ILS (increase life span) (L1210 leukemia cells; 32.0 mg/kg)	Survived ratio (L1210 leukemia cells; 32.0 mg/kg)	ILS (increase life span) (L1210 leukemia cells; 64.0 mg/kg)	Survived ratio (L1210 leukemia cells; 64.0 mg/kg)	ILS50 (50% increase life span dose) (L1210 leukemia cells)	Water solubility (Water solubility)	LD50 (50% lethal dose) (50% lethal dose (LD50))	ILS (increase life span) (L1210 leukemia cells; 2.0 mg/kg)	Survived ratio (L1210 leukemia cells; 2.0 mg/kg)	ILS (increase life span) (L1210 leukemia cells; 128.0 mg/kg)	Survived ratio (L1210 leukemia cells; 128.0 mg/kg)	ILS (increase life span) (L1210 leukemia cells; 0.5 mg/kg)	ILS (increase life span) (L1210 leukemia cells; 1.0 mg/kg)
(trans-dl-1,2-diaminocyclohexane)-malonatoplatinum (II) [Comparative Compound a]	35%	0%	49%	0%	82%	0%	94%	17%	above 108%	17%	7.1 mg/kg	500 µg/mL	244.9 mg/kg						
CCC1C(=O)[O][Pt]2([NH]C3CCCCC3[NH]2)[O]C1=O (racemic) [Comparative Compound c, (trans-dl-1,2-diaminocyclohexane)ethylmalonatoplatinum (II)]	27%		31%		52%		69%				14.2 mg/kg		244.9 mg/kg						
(trans-dl-1,2-diaminocyclohexane) diethylmalonatoplatinum (II) [Compound No. 2]	61%	0%	above 135%	33%	above 124%	17%	above 168%	33%			2.7 mg/kg	10000 µg/mL	140.0 mg/kg	43%	0%				
CC1C(=O)[O][Pt]2([NH]C3CCCCC3[NH]2)[O]C1=O (racemic) [Comparative Compound b, (trans-dl-1,2-diaminocyclohexane)methylmalonatoplatinum (II)]	17%		27%		43%		79%				14.9 mg/kg		312.6 mg/kg						
(trans-dl-1,2-diaminocyclohexane) dimethylmalonatoplatinum (II) [Compound No. 1]	49%	0%	above 136%	17%	112%	0%	130%	0%			3.4 mg/kg	8000 µg/mL	140.0 mg/kg	40%	0%				
N.N.O=C([O-])C1(C(=O)[O-])CCC1.[Pt+2] [Carboplatin]			27%	0%	29%	0%	43%	0%	70%	0%	31.2 mg/kg		200.0 mg/kg			25%	0%		
N.N.[Cl][Pt][Cl] [Cisplatin]	88%										1.3 mg/kg			75%				19%	33%
